Columns and labels:
green foxtail [1] = test: Foliar spread test for upland field; assay type: in vivo, Setaria viridis; design: key: 0 = normal development, 5 = all killed (6 ranks vs. untreated); conditions: foliar spray, 500 ppm, 3 weeks, glass house 25° C.
How it was run: (§1)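 Plants grown about 2 weeks at 25 °C in volcanic ash soil were sprayed with wettable powder diluted to 500 ppm in water with 0.5% surfactant. After 3 weeks at 25 °C, damage was scored 0 (normal) to 5 (all killed) against untreated plants.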

corn [2] = test: Foliar spread test for upland field; assay type: in vivo; design: key: 0 = normal development, 5 = all killed (6 ranks vs. untreated); conditions: foliar spray, 500 ppm, 3 weeks, glass house 25° C.
How it was run: as §1

cotton = test: Foliar spread test for upland field; assay type: in vivo; design: key: 0 = normal development, 5 = all killed (6 ranks vs. untreated); conditions: foliar spray, 500 ppm, 3 weeks, glass house 25° C.
How it was run: as §1

soybean [3] = test: Foliar spread test for upland field; assay type: in vivo; design: key: 0 = normal development, 5 = all killed (6 ranks vs. untreated); conditions: foliar spray, 500 ppm, 3 weeks, glass house 25° C.
How it was run: as §1

sugar beat [4] = test: Foliar spread test for upland field; assay type: in vivo; design: key: 0 = normal development, 5 = all killed (6 ranks vs. untreated); conditions: foliar spray, 500 ppm, 3 weeks, glass house 25° C.
How it was run: as §1

solgum [5] = test: Foliar spread test for upland field; assay type: in vivo; design: key: 0 = normal development, 5 = all killed (6 ranks vs. untreated); conditions: foliar spray, 500 ppm, 3 weeks, glass house 25° C.
How it was run: as §1

wheat [6] = test: Foliar spread test for upland field; assay type: in vivo; design: key: 0 = normal development, 5 = all killed (6 ranks vs. untreated); conditions: foliar spray, 500 ppm, 3 weeks, glass house 25° C.
How it was run: as §1

bulrush = test: Herbicidal test for paddy field; assay type: in vivo, Scrips juncoides; conditions: 500 g/ha, dropwise addition to paddy water at 1.5 leaf stage of barnyard grass; glass house 25° C., 3 weeks; rank 0-5 vs non-treated district
Description: (§2) Wagner pots, each having an area of 1/5000 are, were packed with Ube soil (alluvial soil) and planted with seeds or tubers of young rice plant, barnyard grass, bulrush, Cyperus serotinus Rottb., arrowhead and monochoria. Then, the pots were filled with water to a depth of 3 cm.
(§3) Each wettable powder of the desired Compounds (I) shown in Tables 1 to 21, 24, 25, 28 and 29 prepared in accordance with Example 2 was diluted with water containing a surfactant (0.05%) and subjected to dropwise addition treatment by using pipet so that an effective concentration of the compound (I) in each herbicide became 500 g/ha at 1.5 leaf stage of barnyard grass.
(§4) These plants were controlled in a glass house at an average temperature of 25° C. for 3 weeks, and then herbicidal effects thereof were investigated.
(§5) The herbicidal effects are evaluated according to the following 6 ranks as compared with non-treated district. (0: normal development, 1: Less damaged, 2: Slightly damaged, 3: Moderately damaged, 4: Severely damaged, 5: All killed). Incidentally, “-” in the column means not investigated.

livid amaranth [7] = test: Foliar spread test for upland field; assay type: in vivo, Amaranthus lividus; design: key: 0 = normal development, 5 = all killed (6 ranks vs. untreated); conditions: foliar spray, 500 ppm, 3 weeks, glass house 25° C.
How it was run: as §1

annual bluegrass [8] = test: Foliar spread test for upland field; assay type: in vivo, Poa annua; design: key: 0 = normal development, 5 = all killed (6 ranks vs. untreated); conditions: foliar spray, 500 ppm, 3 weeks, glass house 25° C.
How it was run: as §1

blackgrass [9] = test: Foliar spread test for upland field; assay type: in vivo, Alopecurus aegualis; design: key: 0 = normal development, 5 = all killed (6 ranks vs. untreated); conditions: foliar spray, 500 ppm, 3 weeks, glass house 25° C.
How it was run: as §1

common lambsquarters [10] = test: Foliar spread test for upland field; assay type: in vivo, Chenopodium album; design: key: 0 = normal development, 5 = all killed (6 ranks vs. untreated); conditions: foliar spray, 500 ppm, 3 weeks, glass house 25° C.
How it was run: as §1

morning glory [11] = test: Foliar spread test for upland field; assay type: in vivo, Ipomoea spps.; design: key: 0 = normal development, 5 = all killed (6 ranks vs. untreated); conditions: foliar spray, 500 ppm, 3 weeks, glass house 25° C.
How it was run: as §1

Large crabgrass [12] = test: Foliar spread test for upland field; assay type: in vivo, Digitaria adscendens; design: key: 0 = normal development, 5 = all killed (6 ranks vs. untreated); conditions: foliar spray, 500 ppm, 3 weeks, glass house 25° C.
How it was run: as §1

barnyard grass [13] = test: Herbicidal test for paddy field; assay type: in vivo, Eschinochloa crusgalli; conditions: 500 g/ha, dropwise addition to paddy water at 1.5 leaf stage of barnyard grass; glass house 25° C., 3 weeks; rank 0-5 vs non-treated district
Description: as §2, §3, §4, §5

Xanthium pensylvanicum = test: Foliar spread test for upland field; assay type: in vivo; design: key: 0 = normal development, 5 = all killed; conditions: foliar spray, 500 ppm, 3 weeks, glass house 25° C.
Description: as §5
(§6) Wagner pots, each having an area of 1/5000 are, were packed with volcanic ash soil and then each seed of corn, soybean, cotton, wheat, solgum, sugar beat, Large crabgrass, barnyardgrjass, green foxtail, blackgrass, annual bluegrass, common lambsquarters, livid amaranth, velvetleaf, morning glory, Xanthium pensylvanicum and Cassia obtusifolia was planted, covered with soil and grown in a glass house at an average temperature of 25° C. for about 2 weeks.
(§7) Each wettable powder of the desired compounds (I) shown in Tables 1 to 21, 24, 25, 28 and 29 prepared in accordance with Example 2 was diluted to 500 ppm with water containing a surfactant (0.5%) and then uniformly sprayed on the above respective plants.
(§8) After these plants were controlled in a glass house at an average temperature of 25° C. for 3 weeks, the herbicidal effects thereof were investigated.
(§9) The herbicidal effects were evaluated according to the evaluation method described in the above (1).

Cassia obtusifolia = test: Foliar spread test for upland field; assay type: in vivo; design: key: 0 = normal development, 5 = all killed; conditions: foliar spray, 500 ppm, 3 weeks, glass house 25° C.
Description: as §5, §6, §7, §8, §9

velvetleaf [14] = test: Foliar spread test for upland field; assay type: in vivo, Abutilon theophrasti; design: key: 0 = normal development, 5 = all killed (6 ranks vs. untreated); conditions: foliar spray, 500 ppm, 3 weeks, glass house 25° C.
How it was run: as §1

barnyardgrjass = test: Foliar spread test for upland field; assay type: in vivo, Eschinochloa crusgalli; design: key: 0 = normal development, 5 = all killed (6 ranks vs. untreated); conditions: foliar spray, 500 ppm, 3 weeks, glass house 25° C.
How it was run: as §1

Cyperus serotinus Rottb. = test: Herbicidal test for paddy field; assay type: in vivo; conditions: 500 g/ha, dropwise addition to paddy water at 1.5 leaf stage of barnyard grass; glass house 25° C., 3 weeks; rank 0-5 vs non-treated district
Description: as §2, §3, §4, §5

arrowhead = test: Herbicidal test for paddy field; assay type: in vivo, Sagittaria pygmaea; conditions: 500 g/ha, dropwise addition to paddy water at 1.5 leaf stage of barnyard grass; glass house 25° C., 3 weeks; rank 0-5 vs non-treated district
Description: as §2, §3, §4, §5

green foxtail [15] = test: Soil treatment test for upland field; assay type: in vivo, Setaria viridis; design: key: 0 = normal development, 5 = all killed; conditions: 500 g/ha, 3 weeks, glass house 25° C.
How it was run: (§10)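 Seeds were sown in alluvial soil in pots, and a wettable powder diluted in water with 0.05% surfactant was sprayed evenly on the soil surface at 500 g/ha. Plants were kept in a glass house at about 25° C for 3 weeks, then damage was scored 0–5 against untreated controls.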

morning glory [16] = test: Soil treatment test for upland field; assay type: in vivo, Ipomoea spps.; design: key: 0 = normal development, 5 = all killed; conditions: 500 g/ha, 3 weeks, glass house 25° C.
How it was run: as §10

barnyard grass [17] = test: Soil treatment test for upland field; assay type: in vivo, Eschinochloa crusgalli; design: key: 0 = normal development, 5 = all killed; conditions: 500 g/ha, 3 weeks, glass house 25° C.
How it was run: as §10

blackgrass [18] = test: Soil treatment test for upland field; assay type: in vivo, Alopecurus aegualis; design: key: 0 = normal development, 5 = all killed; conditions: 500 g/ha, 3 weeks, glass house 25° C.
How it was run: as §10

livid amaranth [19] = test: Soil treatment test for upland field; assay type: in vivo, Amaranthus lividus; design: key: 0 = normal development, 5 = all killed; conditions: 500 g/ha, 3 weeks, glass house 25° C.
How it was run: as §10

annual bluegrass [20] = test: Soil treatment test for upland field; assay type: in vivo, Poa annua; design: key: 0 = normal development, 5 = all killed; conditions: 500 g/ha, 3 weeks, glass house 25° C.
How it was run: as §10

Large crabgrass [21] = test: Soil treatment test for upland field; assay type: in vivo, Digitaria adscendens; design: key: 0 = normal development, 5 = all killed; conditions: 500 g/ha, 3 weeks, glass house 25° C.
How it was run: as §10

velvetleaf [22] = test: Soil treatment test for upland field; assay type: in vivo, Abutilon theophrasti; design: key: 0 = normal development, 5 = all killed; conditions: 500 g/ha, 3 weeks, glass house 25° C.
How it was run: as §10

common lambsquarters [23] = test: Soil treatment test for upland field; assay type: in vivo, Chenopodium album; design: key: 0 = normal development, 5 = all killed; conditions: 500 g/ha, 3 weeks, glass house 25° C.
How it was run: as §10

corn [24] = test: Soil treatment test for upland field; assay type: in vivo; design: key: 0 = normal development, 5 = all killed; conditions: 500 g/ha, 3 weeks, glass house 25° C.
How it was run: as §10

soybean [25] = test: Soil treatment test for upland field; assay type: in vivo; design: key: 0 = normal development, 5 = all killed; conditions: 500 g/ha, 3 weeks, glass house 25° C.
How it was run: as §10

sugar beat [26] = test: Soil treatment test for upland field; assay type: in vivo; design: key: 0 = normal development, 5 = all killed; conditions: 500 g/ha, 3 weeks, glass house 25° C.
How it was run: as §10

solgum [27] = test: Soil treatment test for upland field; assay type: in vivo; design: key: 0 = normal development, 5 = all killed; conditions: 500 g/ha, 3 weeks, glass house 25° C.
How it was run: as §10

wheat [28] = test: Soil treatment test for upland field; assay type: in vivo; design: key: 0 = normal development, 5 = all killed; conditions: 500 g/ha, 3 weeks, glass house 25° C.
How it was run: as §10

Row | SMILES | Effects Green foxtail (green foxtail [1]) | Effects Corn (corn [2]) | Effects Sotton (cotton) | Effects Soybean (soybean [3]) | Effects Sugar beat (sugar beat [4]) | Effects Solgum (solgum [5]) | Effects Wheat (wheat [6]) | Effects Bulrush (bulrush) | Effects Livid amaranth (livid amaranth [7]) | Effects Annual bluegrass (annual bluegrass [8]) | Effects Blackgrass (blackgrass [9]) | Effects Common lambsquarters (common lambsquarters [10]) | Effects Morning glory (morning glory [11]) | Effects Large crabgrass (Large crabgrass [12]) | Effects Barnyardgrass (barnyard grass [13]) | Effects Velvetleaf (velvetleaf [14]) | Effects Barnyardgrass (barnyardgrjass) | Effects Cyperus serotinus Rottb. (Cyperus serotinus Rottb.) | Effects Green foxtail (green foxtail [15]) | Effects Morning glory (morning glory [16]) | also measured
1 | N#Cc1ccc2oc(-c3cccc(Oc4cccc(C(F)(F)F)c4)n3)nc2c1 [I-a-18] | 5 | 1 | 4 | 3 | 4 | 1 | 1 | 0 | 5 | 2 | 1 | 4 | 5 | 2 | 3 | 4 | 1 | 0 | – | – | Effects Common Cocklebur (Xanthium pensylvanicum): 4; Effects Sicklepod (Cassia obtusifolia): 5; Effects Arrowhead (arrowhead): 0
2 | CCC(=Cc1cccc(C(F)(F)F)c1)c1nc2cc(C(F)(F)F)ccc2o1 [I-c-86] | 4 | 3 | 4 | 5 | 4 | 2 | 2 | 4 | 5 | 4 | 3 | 5 | 5 | 4 | 5 | 3 | 2 | 3 | 5 | 5 | Effects Barnyardgrass (barnyard grass [17]): 5; Effects Blackgrass (blackgrass [18]): 5; Effects Livid amaranth (livid amaranth [19]): 5; Effects Annual bluegrass (annual bluegrass [20]): 5; Effects Large crabgrass (Large crabgrass [21]): 5; Effects Velvetleaf (velvetleaf [22]): 5; Effects Common lambsquarters (common lambsquarters [23]): 5; Effects Corn (corn [24]): 1; Effects Soybean (soybean [25]): 0; Effects Sugar beat (sugar beat [26]): 5; Effects Solgum (solgum [27]): 1; Effects Wheat (wheat [28]): 0
3 | CCC(=Cc1cccc(C(F)(F)F)c1)c1nc2cc(F)c(F)cc2o1 [I-c-111] | 4 | 3 | 4 | 5 | 4 | 4 | 3 | 4 | 5 | 4 | 4 | 5 | 5 | 4 | 5 | 3 | 3 | 1 | 5 | 4 | Effects Barnyardgrass (barnyard grass [17]): 5; Effects Blackgrass (blackgrass [18]): 5; Effects Livid amaranth (livid amaranth [19]): 5; Effects Annual bluegrass (annual bluegrass [20]): 5; Effects Large crabgrass (Large crabgrass [21]): 5; Effects Velvetleaf (velvetleaf [22]): 5; Effects Common lambsquarters (common lambsquarters [23]): 5; Effects Corn (corn [24]): 2; Effects Soybean (soybean [25]): 5; Effects Sugar beat (sugar beat [26]): 5; Effects Solgum (solgum [27]): 3; Effects Wheat (wheat [28]): 5
4 | CCC(=Cc1cccc(C(F)(F)F)c1)c1nc2cc(C#N)c(F)cc2o1 [I-c-137] | 4 | 3 | 4 | 5 | 4 | 2 | 2 | 4 | 5 | 4 | 3 | 5 | 5 | 4 | 4 | 4 | 3 | 2 | 5 | 5 | Effects Barnyardgrass (barnyard grass [17]): 5; Effects Blackgrass (blackgrass [18]): 5; Effects Livid amaranth (livid amaranth [19]): 5; Effects Annual bluegrass (annual bluegrass [20]): 5; Effects Large crabgrass (Large crabgrass [21]): 5; Effects Velvetleaf (velvetleaf [22]): 5; Effects Common lambsquarters (common lambsquarters [23]): 5; Effects Corn (corn [24]): 2; Effects Soybean (soybean [25]): 3; Effects Sugar beat (sugar beat [26]): 5; Effects Solgum (solgum [27]): 2; Effects Wheat (wheat [28]): 1
5 | CCCC(=Cc1cccc(C(F)(F)F)c1)c1nc2cc(C#N)c(F)cc2o1 [I-c-139] | 4 | 2 | 4 | 5 | 4 | 2 | 2 | 3 | 5 | 4 | 4 | 5 | 5 | 4 | 4 | 4 | 3 | 1 | 5 | 5 | Effects Barnyardgrass (barnyard grass [17]): 5; Effects Blackgrass (blackgrass [18]): 5; Effects Livid amaranth (livid amaranth [19]): 5; Effects Annual bluegrass (annual bluegrass [20]): 5; Effects Large crabgrass (Large crabgrass [21]): 5; Effects Velvetleaf (velvetleaf [22]): 5; Effects Common lambsquarters (common lambsquarters [23]): 5; Effects Corn (corn [24]): 2; Effects Soybean (soybean [25]): 5; Effects Sugar beat (sugar beat [26]): 5; Effects Solgum (solgum [27]): 3; Effects Wheat (wheat [28]): 2
